Test results from patent publication US11987647B2, “Cyclic cell-penetrating peptides with one or more hydrophobic residues” (Ohio State Innovation Foundation, priority 2018, dated 2024).
[ ]: non-standard residue; d: D form. The star is where a group is joined. FtBu = phenylalanine with a tert-butanoyl substituent (F^tBu); Fmoc = O=C(OCC1c2ccccc2-c2ccccc21)*; Decanoyl = CCCCCCCCCC(=O)*; Octanoyl = CCCCCCCC(=O)*; Dap = NC[C@H](N)C(=O)O

Tests used:
Type in all cases: cell-based
HeLa cells [1] = test: Cytosolic entry efficiency of NF-labelled peptides by flow cytometry; details: for Cellular Entry Efficiency In 10% FBS: 2 h, relative to CPP12 (100%); for CPP activity compared with CPP1-15 (in words): stereochemical variation of CPP1-15
Description: All of the peptides were labeled with naphthofluorescein (NF) at the Gln side chain through a long, flexible linker, miniPEG-Lys. HeLa cells were treated with 5 μM peptide for 2 h in the presence of 10% FBS and the cytosolic entry of the peptides was quantitated by flow cytometry analysis.
To determine cellular uptake efficiency of the CPPs disclosed herein, HeLa cells were cultured in 12-well plates (1.5×10^5 cells per well) overnight. The cells were incubated for 2 h with […] naphthofluorescein (NF)-labelled peptide in cellular media. At the end of incubation, the cells were washed with DPBS twice, detached from the plate with 0.25% trypsin, diluted into clear DMEM, pelleted at 250 g for 5 min, washed twice with DPBS, resuspended in DPBS, and analyzed on a BD FACS LSR II flow cytometer. For NF-labelled peptides, a 633-nm laser was used for excitation and the fluorescence emission was analyzed in the APC channel. Absolute cellular uptake efficiency was determined by comparing the concentration (via fluorescence intensity) of the CPP in the cytosol to the concentration in the extracellular medium. Relative cellular uptake efficiency was determined by comparing the cytosolic concentration of the CPP to that cytosolic concentration of the control CPP cyclo(FΦRRRRQ).

HeLa cells [2] = test: as above; details: for Cellular Entry Efficiency In 1% FBS: relative to CPP12 (100%)
HeLa cells [3] = test: Cellular entry by live-cell confocal imaging of FITC-labelled peptides; details: 5 μM FITC-labelled peptide, 2 h
Description: CPP1-15 and CPP1-20 were labeled with FITC via a miniPEG-Lys linker. HeLa cells were treated with 5 μM peptide for 2 h, washed, and imaged by live-cell confocal imaging. […] Additional experiments are ongoing to further examine their mechanism of cell entry.

[4] = Table 4, 5 μM NF-labelled peptide, 10% FBS
[5] = Table 7, 5 μM NF-labelled peptide, 10% FBS

| Substance | Cellular Entry Efficiency In 10% FBS (HeLa cells [1]; [4]) [%] | Cellular Entry Efficiency In 10% FBS (HeLa cells [1]; [5]) [%] | other results |
| --- | --- | --- | --- |
| cyclo(Asp^DecyrRrRQ) [CPP1-24] | 8.6 | 8.6 | – |
| cyclo(Lys^DecaRrRrQ) [CPP1-18] | 31 | 31 | CPP activity compared with CPP1-15 (in words) (HeLa cells [1]): reduced the CPP activity |
| cyclo(Glu^DecyRrRrQ) [CPP1-23] | 1.4 | 1.4 | – |
| cyclo(Dap^DecaRRRAQ) (cyclo([Dap](Decanoyl)RRRAQ); SMILES CCCCCCCCCC(=O)NC[C@@H]1NC(=O)[C@H](CCC(N)=O)NC(=O)[C@H](C)NC(=O)[C@H](CCCNC(=N)N)NC(=O)[C@H](CCCNC(=N)N)NC(=O)[C@H](CCCNC(=N)N)NC1=O) [CPP1-13] | 32 ± 2 | 32 ± 2 | Cellular Entry Efficiency In 1% FBS (HeLa cells [2]; Table 4, NF-labelled peptide): 33%; Cellular Entry Efficiency In 1% FBS (HeLa cells [2]; Table 7, NF-labelled peptide): 33%; CPP activity compared with CPP1-4 (in words) (HeLa cells [1]; variant of CPP1-4): reduced the CPP activity |
| cyclo(Glu^DecyrRrRQ) [CPP1-25] | 34 | 34 | – |
| cyclo(Dap^3,3-diphenyRRRRQ) (cyclo([Dap](3,3‑diphenylpropanoyl)RRRRQ)) [CPP1-6] | 3.9 ± 0.4 | 3.9 ± 0.4 | – |
| cyclo(Asp^DecyRrRrQ) [CPP1-22] | 11 | 11 | – |
| cyclo(Dap^OctanRRRRQ) (cyclo([Dap](Octanoyl)RRRRQ); SMILES CCCCCCCC(=O)NC[C@@H]1NC(=O)[C@H](CCC(N)=O)NC(=O)[C@H](CCCNC(=N)N)NC(=O)[C@H](CCCNC(=N)N)NC(=O)[C@H](CCCNC(=N)N)NC(=O)[C@H](CCCNC(=N)N)NC1=O) [CPP1-3] | 5.7 ± 0.6 | 5.7 ± 0.6 | – |
| cyclo(F^tBuRRRRQ) (cyclo([FtBu]RRRRQ)) [CPP1-1] | 6.7 ± 0.4 | 6.7 ± 0.4 | – |
| cyclo(Asp^DecyRRRRQ) (cyclo(DRRRRQ); not fully specified (residue 1); printed as cyclo(Asp^DecyRRRRQ)) [CPP1-20] | 281 ± 59 | 281 ± 59 | cellular entry (confocal imaging) (HeLa cells [3]): entered HeLa cells efficiently; Cellular Entry Efficiency In 1% FBS (HeLa cells [2]; Table 4, NF-labelled peptide): 94 ± 41%; Cellular Entry Efficiency In 1% FBS (HeLa cells [2]; Table 7, NF-labelled peptide): 94 ± 41%; cytosolic entry efficiency (HeLa cells [2]; reduced serum concentration (1% FBS), CPP12 most active): 94%; improvement in activity (HeLa cells [1]; 10% FBS, relative to CPP1-4): ~5 fold; sensitivity to serum concentration (HeLa cells [1]; 10% vs 1% FBS, compared with CPP9 or CPP12): lower sensitivity to serum concentration; fold more active than CPP9 and CPP12 (HeLa cells [1]; in the presence of 10% FBS): −3 fold |
| cyclo(Lys^DecarRrRQ) [CPP1-19] | 12 | 12 | CPP activity compared with CPP1-15 (in words) (HeLa cells [1]): reduced the CPP activity |
| cyclo(Dap^FmocRRRRQ) (cyclo([Dap](Fmoc)RRRRQ); SMILES N=C(N)NCCC[C@@H]1NC(=O)[C@H](CCCNC(=N)N)NC(=O)[C@H](CCCNC(=N)N)NC(=O)[C@H](CNC(=O)OCC2c3ccccc3-c3ccccc32)NC(=O)[C@H](CCC(N)=O)NC(=O)[C@H](CCCNC(=N)N)NC1=O) [CPP1-7] | 17 ± 1 | 17 ± 1 | – |
| cyclo(FfΦRrRrQ) [CPP12, reference compound] | 100 | 100 | Cellular Entry Efficiency In 1% FBS (HeLa cells [2]; Table 4, NF-labelled peptide): 100%; Cellular Entry Efficiency In 1% FBS (HeLa cells [2]; Table 7, NF-labelled peptide): 100% |
